This note sets out measurements from patent US20250243486A1, “COMPOSITIONS AND METHODS FOR INHIBITING STAG1 EXPRESSION AND USES THEREOF” (PRESIDENT AND FELLOWS OF HARVARD COLLEGE, priority 2022, published 2025).

For this test, the system named is STAG1 Exon 5. Put plainly: STAG1 Exon 5 inclusion in control or STAG2 KO cells following treatment with H3B-8800. The class given is cell-based.

As for H3B-8800, the “STAG1 Exon 5 skipping” value (STAG2 KO versus control cells, following treatment of H3B-8800) is “increased STAG1 Exon 5 skipping”. For the same substance, the “sensitivity of cohesin-mutant AML cells to splicing inhibitor” value (cohesin mutations, AML cells) is on record as “highly sensitive”.
